Assay results published in ChEMBL document CHEMBL3045627, “Effect of allylisothiocyanate on Sitophilus oryzae, Tribolium confusum and Plodia interpunctella: Toxicity and effect on insect mitochondria” (2012).
Active and inactive are the calls of the source. The rule behind the calls is not given here.

How the values were obtained:
Sitophilus oryzae [1] = test: Insecticidal activity against adult Sitophilus oryzae (rice weevil) in wheat grain assessed as mortality at 85% EC dry formulation applied as fumes for 24 hr measured after 7 days by fumigation bioassay; type: functional
Tribolium confusum [2] = test: Insecticidal activity against third-instar larval stage of Tribolium confusum (confused flour beetle) assessed as enlarged mitochondria with reduced quantity of cristae, lower electron dense matrix, vacuolization and rarefaction of mitochondrial matrix in the epithelial cells of epidermal layer in the integument at LC20 applied as fumes measured after 24 hr by electron microscopic analysis; type: functional, organism-based; details: Epithelial cell
Tribolium confusum [3] = test: Insecticidal activity against third-instar larval stage of Tribolium confusum (confused flour beetle) assessed as vacuolization of mitochondrial matrix, nucleus with well distributed chromatin, enlarged mitochondria with few cristae, reduced electron density, matrix rarefaction in the epithelial cells of epidermal layer in the integument at LC50 applied as fumes measured after 24 hr by electron microscopic analysis; type: functional, organism-based; details: Epithelial cell
Tribolium confusum [4] = test: Insecticidal activity against third-instar larval stage of Tribolium confusum (confused flour beetle) assessed as morphological changes in anterior, posterior and middle regions of midgut with attatched malphigian tubules applied as vapours measured after 24 hr by light microscopy; type: functional, organism-based
Tribolium confusum [5] = test: Insecticidal activity against third-instar larval stage of Tribolium confusum (confused flour beetle) assessed as change in the integument colour to dark in the middle area with slight effect toward both ends applied as vapour measured after 24 hr by light microscopic analysis; type: functional, organism-based
Tribolium confusum [6] = test: Insecticidal activity against larvae of Tribolium confusum (confused flour beetle) in broken wheat assessed as mortality at 11.3 microl/L air at 85% EC formulation applied as fumes for 72 hr measured after 14 days by fumigation bioassay; type: functional
Tribolium confusum [7] = test: Insecticidal activity against adult Tribolium confusum (confused flour beetle) in broken wheat assessed as mortality at 11.3 microl/L air at 85% EC formulation applied as fumes for 72 hr measured after 14 days by fumigation bioassay; type: functional
Sitophilus oryzae [8] = test: Insecticidal activity against adult Sitophilus oryzae (rice weevil) in wheat grain assessed as mortality at 11.3 microl/L air at 85% EC formulation applied as fumes for 72 hr measured after 7 days by fumigation bioassay; type: functional
Tribolium confusum [9] = test: Insecticidal activity against larvae of Tribolium confusum (confused flour beetle) in broken wheat assessed as mortality at 9.4 microl/L air at 85% EC formulation applied as fumes for 72 hr measured after 14 days by fumigation bioassay; type: functional
Tribolium confusum [10] = test: Insecticidal activity against adult Tribolium confusum (confused flour beetle) in broken wheat assessed as mortality at 9.4 microl/L air at 85% EC formulation applied as fumes for 72 hr measured after 14 days by fumigation bioassay; type: functional
Sitophilus oryzae [11] = test: Insecticidal activity against adult Sitophilus oryzae (rice weevil) in wheat grain assessed as mortality at 9.4 microl/L air at 85% EC formulation applied as fumes for 72 hr measured after 7 days by fumigation bioassay; type: functional
Tribolium confusum [12] = test: (§1) Insecticidal activity against third-instar larval stage of Tribolium confusum (confused flour beetle) assessed as numerous mitochondria with few cristae, reduced electron density, matrix rarefaction and vacuolization of the mitochondrial matrix in regenerative nidi cells of the midgut at LC20 applied as fumes measured after 24 hr by electron microscopic analysis; type: functional, organism-based
Tribolium confusum [13] = test: Insecticidal activity against larvae of Tribolium confusum (confused flour beetle) in broken wheat assessed as mortality at 4.3 microl/L air at 85% EC formulation applied as fumes for 72 hr measured after 14 days by fumigation bioassay; type: functional
Tribolium confusum [14] = test: Insecticidal activity against adult Tribolium confusum (confused flour beetle) in broken wheat assessed as mortality at 4.3 microl/L air at 85% EC formulation applied as fumes for 72 hr measured after 14 days by fumigation bioassay; type: functional
Sitophilus oryzae [15] = test: Insecticidal activity against adult Sitophilus oryzae (rice weevil) in wheat grain assessed as mortality at 4.3 microl/L air at 85% EC formulation applied as fumes for 72 hr measured after 7 days by fumigation bioassay; type: functional
Plodia interpunctella [16] = test: Insecticidal activity against larvae of Plodia interpunctella (Indian meal moth ) in wheat grain assessed as mortality at 85% EC wettable formulation applied as fumes for 72 hr measured after 7 days by fumigation bioassay; type: functional
Tribolium confusum [17] = test: as §1, with “columnar” for “regenerative nidi”; type: functional, organism-based
Tribolium confusum [18] = test: Insecticidal activity against larvae of Tribolium confusum (confused flour beetle) in broken wheat assessed as mortality at 85% EC wettable formulation applied as fumes for 72 hr measured after 14 days by fumigation bioassay; type: functional
Tribolium confusum [19] = test: Insecticidal activity against adult Tribolium confusum (confused flour beetle) in broken wheat assessed as mortality at 85% EC wettable formulation applied as fumes for 72 hr measured after 14 days by fumigation bioassay; type: functional
Sitophilus oryzae [20] = test: Insecticidal activity against adult Sitophilus oryzae (rice weevil) in wheat grain assessed as mortality at 85% EC wettable formulation fumigated for 72 hr applied as fumes after 7 days by fumigation bioassay; type: functional
Plodia interpunctella [21] = test: Insecticidal activity against larvae of Plodia interpunctella (Indian meal moth ) in wheat grain assessed as mortality at 85% EC wettable formulation applied as fumes for 24 hr measured after 7 days by fumigation bioassay; type: functional
Tribolium confusum [22] = test: Insecticidal activity against larvae of Tribolium confusum (confused flour beetle) in broken wheat assessed as mortality at 85% EC wettable formulation applied as fumes for 24 hr measured after 14 days by fumigation bioassay; type: functional
Tribolium confusum [23] = test: Insecticidal activity against adult Tribolium confusum (confused flour beetle) in broken wheat assessed as mortality at 85% EC wettable formulation applied as fumes for 24 hr measured after 14 days by fumigation bioassay; type: functional
Sitophilus oryzae [24] = test: Insecticidal activity against adult Sitophilus oryzae (rice weevil) in wheat grain assessed as mortality at 85% EC wettable formulation applied as fumes for 24 hr measured after 7 days by fumigation bioassay; type: functional
Plodia interpunctella [25] = test: Insecticidal activity against larvae of Plodia interpunctella (Indian meal moth ) in wheat grain assessed as mortality at 85% EC dry formulation applied as fumes for 72 hr measured after 7 days by fumigation bioassay; type: functional
Tribolium confusum [26] = test: Insecticidal activity against larvae of Tribolium confusum (confused flour beetle) in broken wheat assessed as mortality at 85% EC dry formulation applied as fumes for 72 hr measured after 14 days by fumigation bioassay; type: functional
Tribolium confusum [27] = test: Insecticidal activity against adult Tribolium confusum (confused flour beetle) in broken wheat assessed as mortality at 85% EC dry formulation applied as fumes for 72 hr measured after 14 days by fumigation bioassay; type: functional
Sitophilus oryzae [28] = test: Insecticidal activity against adult Sitophilus oryzae (rice weevil) in wheat grain assessed as mortality at 85% EC dry formulation applied as fumes for 72 hr measured after 7 days by fumigation bioassay; type: functional
Plodia interpunctella [29] = test: Insecticidal activity against larvae of Plodia interpunctella (Indian meal moth ) in wheat grain assessed as mortality at 85% EC dry formulation applied as fumes for 24 hr measured after 7 days by fumigation bioassay; type: functional
Tribolium confusum [30] = test: Insecticidal activity against larvae of Tribolium confusum (confused flour beetle) in broken wheat assessed as mortality at 85% EC dry formulation applied as fumes for 24 hr measured after 14 days by fumigation bioassay; type: functional
Tribolium confusum [31] = test: Insecticidal activity against adult Tribolium confusum (confused flour beetle) in broken wheat assessed as mortality at 85% EC dry formulation applied as fumes for 24 hr measured after 14 days by fumigation bioassay; type: functional
Tribolium confusum [32] = test: Insecticidal activity against larvae of Tribolium confusum (confused flour beetle) in broken wheat assessed as mortality at 5 mg/l applied as fumes for 72 hr measured after 14 days by fumigation bioassay; details: in Triticum aestivum
Tribolium confusum [33] = test: Insecticidal activity against adult Tribolium confusum (confused flour beetle) in broken wheat assessed as mortality at 5 mg/l applied as fumes for 72 hr measured after 14 days by fumigation bioassay; details: in Triticum aestivum
Sitophilus oryzae [34] = test: whole plant or invertebrate; details: in Triticum aestivum

Structure (SMILES): C=CCN=C=S [ALLYL ISOTHIOCYANATE]
- LC50 (Sitophilus oryzae [1]): 2.6 uL/L
- LC95 (Sitophilus oryzae [1]): 4.7 uL/L
- Activity (Tribolium confusum [2]): Active
- Activity (Tribolium confusum [3]): Active
- Activity (Tribolium confusum [4]): Active
- Activity (Tribolium confusum [5]): Active
- mortality (Tribolium confusum [6]): 100%
- mortality (Tribolium confusum [7]): 100%
- mortality (Sitophilus oryzae [8]): 100%
- mortality (Tribolium confusum [9]): 93%
- mortality (Tribolium confusum [10]): 100%
- mortality (Sitophilus oryzae [11]): 100%
- Activity (Tribolium confusum [12]): Active
- mortality (Tribolium confusum [13]): 48%
- mortality (Tribolium confusum [14]): 70%
- mortality (Sitophilus oryzae [15]): 100%
- LC50 (Plodia interpunctella [16]): 2.3 uL/L
- LC95 (Plodia interpunctella [16]): 5 uL/L
- Activity (Tribolium confusum [17]): Active
- LC50 (Tribolium confusum [18]): 5.5 uL/L
- LC95 (Tribolium confusum [18]): 9.9 uL/L
- LC50 (Tribolium confusum [19]): 4.2 uL/L
- LC95 (Tribolium confusum [19]): 7.8 uL/L
- LC50 (Sitophilus oryzae [20]): 2.2 uL/L
- LC95 (Sitophilus oryzae [20]): 3.7 uL/L
- LC50 (Plodia interpunctella [21]): 3.7 uL/L
- LC95 (Plodia interpunctella [21]): 8.7 uL/L
- LC50 (Tribolium confusum [22]): 7.1 uL/L
- LC50 (Tribolium confusum [23]): 5.5 uL/L
- LC95 (Tribolium confusum [23]): 12.8 uL/L
- LC50 (Sitophilus oryzae [24]): 2.7 uL/L
- LC95 (Sitophilus oryzae [24]): 4.2 uL/L
- LC50 (Plodia interpunctella [25]): 2.2 uL/L
- LC95 (Plodia interpunctella [25]): 4.1 uL/L
- LC50 (Tribolium confusum [26]): 4.7 uL/L
- LC95 (Tribolium confusum [26]): 9.5 uL/L
- LC50 (Tribolium confusum [27]): 3.7 uL/L
- LC95 (Tribolium confusum [27]): 6.6 uL/L
- LC50 (Sitophilus oryzae [28]): 2 uL/L
- LC95 (Sitophilus oryzae [28]): 3.4 uL/L
- LC50 (Plodia interpunctella [29]): 3.5 uL/L
- LC95 (Plodia interpunctella [29]): 7.7 uL/L
- LC50 (Tribolium confusum [30]): 7.3 uL/L
- LC50 (Tribolium confusum [31]): 4.7 uL/L
- LC95 (Tribolium confusum [31]): 9.3 uL/L

Structure (SMILES): P [PHOSPHINE]
- mortality at 5 µg/mL (Tribolium confusum [32]): 100%
- mortality at 5 µg/mL (Tribolium confusum [33]): 100%
- mortality at 5 µg/mL (Sitophilus oryzae [34]): 100%
